Assay [1] relates to MS751 cells. As to the kind of experiment: MTT cell proliferation assay, MS751 cells. It counts as cell-based, human. Conditions: incubation approximately 64-72 hours, read-out: MTT Assay IC50 MS 751. On the procedure: (§1) The MTT cell proliferation assay was used to study the cytotoxic properties of the compounds. The assay was performed according to the method described by Roche Molecular Biochemicals, with minor modifications. The assay is based on the cleavage of the tetrazolium salt, MTT, in the presence of an electron-coupling reagent. The water-insoluble formazan salt produced must be solubilized in an additional step. Cells grown in a 96-well tissue culture plate were incubated with the MTT solution for approximately 4 hours. After this incubation period, a water-insoluble formazan dye formed. After solubilization, the formazan dye was quantitated using a scanning multi-well spectrophotometer (ELISA reader). […] The cells were seeded at 5,000-10,000 cells in each well of 96-well plate in 100 μL of fresh culture medium and were allowed to attach overnight. The stock solutions of the compounds were diluted in 100 μL cell culture medium to obtain eight concentrations of each test compound, ranging from 1 nM to 30 μM. […] All optical densities were measured at 490 nm using a Vmax Kinetic Microplate Reader (Molecular Devices). In most cases, the assay was performed in duplicate and the results were presented as a mean percent inhibition to the negative control+SE. The following formula was used to calculate the percent of inhibition: Inhibition (%)=(1−(ODo/OD))×100.
(§2) The compounds were tested against MS751, Z138 and 3T3 cells. The MS751 cell line is derived from a metastasis to lymph node of human cervix from a patient diagnosed with squameous cell carcinoma of the cervix. The Z138 cell line is a mature B-cell acute lymphoblastic leukemia cell line derived from a patient with chronic lumphocytic leukemia. 3T3 cells are standard fibroblast cells; they were originally isolated from Swiss mouse embryo tissue.

In assay [2] the test system is Z138 cells. As to the kind of experiment: MTT cell proliferation assay, Z138 cells. The assay is classed as cell-based, human. On the procedure:
as §1, §2
A general note: Tetrazolium dyes change colour on reduction, which living cells bring about.

Assay [3] has as its system 3T3 cells. As to the kind of experiment: MTT cell proliferation assay, 3T3 cells. It counts as cell-based, mouse. Conditions: 3T3 fibroblast cells, incubation approximately 64-72 hours. On the procedure:
as §1, §2

The mark [4] stands for this setting: Homo sapiens, Z-138, incubation approximately 64-72 hours.

Like-named read-outs stand apart in the source and are kept apart here.

The results in this text go back to patent US20180244660A1, “CYCLOPROPYLDERIVATIVES AND THEIR USE AS KINASE INHIBITORS” (Karyopharm Therapeutics Inc., priority 2015, published 2018).

As a reminder, the IC50 is the point on the concentration scale where inhibition reaches its midpoint.

Take `Nc1ccc([C@H]2C[C@@H]2C(=O)NCCc2cc3cc(-c4ccc(C(=O)N5CCC(F)(F)CC5)cc4)cc(-c4ccc(F)cc4)c3o2)cn1` [Compound K019, (1S,2S)-2-(6-aminopyridin-3-yl)-N—(2-(5-(4-(4,4-difluoropiperidine-1-carbonyl)phenyl)-7-(4-fluorophenyl)benzofuran-2-yl)ethyl)cyclopropanecarboxamide]: the IC50 in assay [1] (Homo sapiens) was < 1000 nM; in assay [2] (setting [4]), < 1000 nM; in assay [3] (Mus musculus, NIH3T3) it was 1 to 5 µM.

Regarding `Nc1ccc([C@H]2C[C@@H]2C(=O)NCc2cc3cc(-c4ccc(C(=O)N5CC(F)C5)cc4)cc(-c4ccc(F)cc4)c3o2)cn1` [Compound K020, (1S,2S)-2-(6-aminopyridin-3-yl)-N—((5-(4-(3-fluoroazetidine-1-carbonyl)phenyl)-7-(4-fluorophenyl)benzofuran-2-yl)methyl)cyclopropanecarboxamide], the IC50 is < 1000 nM in assay [1] (Homo sapiens); < 1000 nM in assay [2] (setting [4]); 1 to 5 µM in assay [3] (Mus musculus, NIH3T3).

As to `Nc1ccc([C@H]2C[C@@H]2C(=O)NCc2nc3cc(-c4ccc(C(=O)N5CCC(F)(F)CC5)cc4)cc(-c4ccc(F)cc4)c3o2)cn1` [Compound K021, (1S,2S)-2-(6-aminopyridin-3-yl)-N—((5-(4-(4,4-difluoropiperidine-1-carbonyl)phenyl)-7-(4-fluorophenyl)benzo[d]oxazol-2-yl)methyl)cyclopropanecarboxamide], the IC50 is > 10000 nM in assay [1] (Homo sapiens); > 10000 nM in assay [2] (setting [4]); > 10 µM in assay [3] (Mus musculus, NIH3T3).

Consider `Nc1ccc([C@H]2C[C@@H]2C(=O)NCc2cc3cc(-c4ccc(C(=O)N5CCC(F)(F)CC5)cc4)cc(-c4ccc(F)cc4)c3[nH]2)cn1` [Compound K022, (1S,2S)-2-(6-aminopyridin-3-yl)-N—((5-(4-(4,4-difluoropiperidine-1-carbonyl)phenyl)-7-(4-fluorophenyl)-1H-indol-2-yl)methyl)cyclopropanecarboxamide], for which the IC50 in assay [1] (Homo sapiens) was 1000 to 5000 nM; in assay [2] (setting [4]), 5000 to 10000 nM; in assay [3] (Mus musculus, NIH3T3), > 10 µM.

With `Cn1c(CNC(=O)[C@H]2C[C@@H]2c2ccc(N)nc2)cc2cc(-c3ccc(C(=O)N4CCC(F)(F)CC4)cc3)cc(-c3ccc(F)cc3)c21` [Compound K023, (1S,2S)-2-(6-aminopyridin-3-yl)-N—((5-(4-(4,4-difluoropiperidine-1-carbonyl)phenyl)-7-(4-fluorophenyl)-1-methyl-1H-indol-2-yl)methyl)cyclopropanecarboxamide], the IC50 in assay [1] (Homo sapiens) was 1000 to 5000 nM; in assay [2] (setting [4]), 1000 to 5000 nM; in assay [3] (Mus musculus, NIH3T3), > 10 µM.

Turning to `Nc1ccc([C@H]2C[C@@H]2C(=O)NCc2cc3cc(-c4ccc(C(=O)N5CC(F)C5)cc4F)cc(-c4ccc(F)cc4)c3o2)cn1` [Compound K024, (1S,2S)-2-(6-aminopyridin-3-yl)-N—((5-(2-fluoro-4-(3-fluoroazetidine-1-carbonyl)phenyl)-7-(4-fluorophenyl)benzofuran-2-yl)methyl)cyclopropanecarboxamide], the IC50 in assay [1] (Homo sapiens) is < 1000 nM; in assay [2] (setting [4]) it was < 1000 nM; in assay [3] (Mus musculus, NIH3T3), < 1 µM.

For the compound `Nc1ccc([C@H]2C[C@@H]2C(=O)NCc2cnc(-c3ccc(-c4ccc(C(=O)N5CC(F)(F)C5)cc4)cc3C(F)(F)F)o2)cn1` [Compound K025, (1S,2S)-2-(6-aminopyridin-3-yl)-N—((2-(4′-(3,3-difluoroazetidine-1-carbonyl)-3-(trifluoromethyl)biphenyl-4-yl)oxazol-5-yl)methyl)cyclopropanecarboxamide], the half-maximal inhibitory concentration (IC50) is 1000 to 5000 nM in assay [1] (Homo sapiens); 1000 to 5000 nM in assay [2] (setting [4]); > 10 µM in assay [3] (Mus musculus, NIH3T3).

With `[2H]c1c(CNC(=O)[C@H]2C[C@@H]2c2ccc(N)nc2)oc2c(-c3ccc(F)cc3)cc(-c3ccc(C(=O)N4CC(F)C4)cc3)cc12` [Compound K026, (1S,2S)-2-(6-aminopyridin-3-yl)-N—((3-deutero-5-(4-(3-fluoroazetidine-1-carbonyl)phenyl)-7-(4-fluorophenyl)benzofuran-2-yl)methyl)cyclopropanecarboxamide], the IC50 in assay [1] (Homo sapiens) is < 1000 nM; in assay [2] (setting [4]), < 1000 nM; in assay [3] (Mus musculus, NIH3T3), 1 to 5 µM.

On to `Nc1ccc([C@H]2C[C@@H]2c2nc(-c3cc4cc(-c5ccc(C(=O)N6CC(F)C6)cc5)cc(-c5ccc(F)cc5)c4o3)co2)cn1` [Compound K029, (4-(2-(2-((1S,2S)-2-(6-aminopyridin-3-yl)cyclopropyl)oxazol-4-yl)-7-(4-fluorophenyl)benzofuran-5-yl)phenyl)(3-fluoroazetidin-1-yl)methanone], for which the IC50 in assay [1] (Homo sapiens) is 1000 to 5000 nM; in assay [2] (setting [4]), 1000 to 5000 nM; in assay [3] (Mus musculus, NIH3T3) it was > 10 µM.

Consider “(1S,2S)-2-(6-aminopyridin-3-yl)-N—((7-chloro-5-(4-(3,3-difluoroazetidine-1-carbonyl)phenyl)-2,3-dihydrobenzofuran-2-yl)methyl)cyclopropanecarboxamide [Compound K028]”, for which the IC50 was < 1000 nM in assay [1]; < 1000 nM in assay [2] (incubation approximately 64-72 hours, read-out: MTT Assay IC50 Z-138); > 10 µM in assay [3].
